Test results: publication PMC8980233, “Differentiating the Neuropharmacological Properties of Nicotinic Acetylcholine Receptor-Activating Alkaloids” (Frontiers in Pharmacology, 2022)
“Also recorded” adds a separate entry of the source.

Tests used:
α7 nAChR [1] = target: T1, α7 nAChR (Homo sapiens, UniProt P36544); assay: Radioligand displacement binding assay
Experimental: All binding and functional assays for molecular target characterization were conducted by Eurofins Cerep SA (Celle-Lévescault, France) and Eurofins Panlabs Discovery Services Taiwan, Ltd. (New Taipei City, Taiwan) using their standard in vitro binding and functional assays (Supplementary Material S2). […] Negative values were considered to be an artifact arising from, for example, compounds interfering with the assay readout.
The radioligand displacement binding assays employed the gold standard filtration method using membrane preparations from stable cell lines (HEK-293 or CHO cells) expressing human or rodent target proteins to determine the interaction of the compounds with specific receptors, channels, and transporters. For this purpose, the competitive binding of test compounds against a [^125I]- [^3H]-, or [^35S]-labelled agonist and/or antagonist was determined.
Assay Source Ligand Conc. Kd Non Specific Incubation Detection Bibl.
N neuronal α7 (h) SH-SY5Y cells [125I]α-bungarotoxin 0.05 nM 0.34 nM α-bungarotoxin 120 min Scintillation 347
(antagonist radioligand) (human (1 µM) 37°C counting

α7 nAChR [2] = target: T1, α7 nAChR; assay: nAChR functional assay, automated patch-clamp; format: cell-based; conditions: mean ± S.D.; no effect = up to 33 μM
Experimental: Electrophysiological responses were recorded using an automated patch-clamp Patchliner Octo® system (Nanion Technologies, Munich, Germany) equipped with two EPC-10 Quadro patch-clamp amplifiers (HEKA Elektronik, Lambrecht, Germany) as described by ([Alijevic et al., 2020]). In brief, Chinese hamster ovary (CHO) or human embryonic kidney-293 (HEK-293) cells stably expressing human nAChRs (Charles River Laboratories, Wilmington, MA, United States) were maintained in DMEM/F12 medium (Gibco, Thermo Fisher Scientific, Waltham, MA, United States) supplemented with 10% heat-inactivated fetal bovine serum (FBS; Gibco) and penicillin–streptomycin (100 U/mL and 0.1 mg/ml, respectively; Sigma-Aldrich, St. Louis, MO, United States) at 37°C in 5% CO2 and 70% humidity. The following selection antibiotics were used for the cell lines: G418 (0.25 mg/ml; Sigma-Aldrich) and Zeocin^TM (0.4 mg/ml; InvivoGen, San Diego, CA, United States) for α7/Ric3 nAChR and α3β4 nAChR cells; puromycin (8 μg/ml; InvivoGen) and hygromycin B (0.4 mg/ml; Gibco) for α4β2 nAChR cells; and G418 (0.5 mg/ml), puromycin (0.25 μg/ml), and hygromycin B (0.02 mg/ml) for α6/3β2/β3 nAChR cells. The cells were used for characterizing nAChR pharmacology, because no endogenous ionotropic nicotinic receptors are found ([Roncarati et al., 2008]; [Papke and Smith-Maxwell, 2009]; [Kirsch et al., 2016]; [Scheffel et al., 2018]). The subunit distributions in the cells have been previously described ([Alijevic et al., 2020]). The human nAChRs were selected due to the lack of commercially available nAChR expression systems for mouse or zebrafish. The translatability of findings between zebrafish and human nAChR activities have been previously reported ([Papke and Smith-Maxwell, 2009]; [Papke et al., 2012]; [Alijevic et al., 2020]).
On the day of the experiment, nAChR-expressing cells were suspended in extracellular solution (in mM: 140 NaCl, 4KCl, one MgCl2, two CaCl2, five glucose, and 10 HEPES, adjusted to pH 7.4 with NaOH (298 mOsmol)), then placed in the Patchliner Octo® system. The internal solution contained in mM: 50 KCl, 60 kF, 10 NaCl, 20 EGTA, and 10 HEPES, adjusted to pH 7.2 with KOH (285 mOsmol). […] Data were analyzed using the Patchmaster software and corrected for leak current. The data acceptance criteria were as follows: seal resistance >100 MΩ; seal resistance loss variation <50%; access resistance <20 MΩ; and minimum current amplitude elicited by maximal effect concentration acetylcholine >50 pA. Offline data analysis was performed in OpenOffice™ (v4.1.2; The Apache Software Foundation, Wakefield, MA, United States). Data are presented as mean ± S.D. All experiments were performed at room temperature (24°C) and repeated at least three times. Igor Pro (v6.2.2.2; WaveMetrics, Lake Oswego, OR, United States) or Prism (v8.2.1) were used for assessing the concentration–response curves.

T1 sequence (P36544 23-502): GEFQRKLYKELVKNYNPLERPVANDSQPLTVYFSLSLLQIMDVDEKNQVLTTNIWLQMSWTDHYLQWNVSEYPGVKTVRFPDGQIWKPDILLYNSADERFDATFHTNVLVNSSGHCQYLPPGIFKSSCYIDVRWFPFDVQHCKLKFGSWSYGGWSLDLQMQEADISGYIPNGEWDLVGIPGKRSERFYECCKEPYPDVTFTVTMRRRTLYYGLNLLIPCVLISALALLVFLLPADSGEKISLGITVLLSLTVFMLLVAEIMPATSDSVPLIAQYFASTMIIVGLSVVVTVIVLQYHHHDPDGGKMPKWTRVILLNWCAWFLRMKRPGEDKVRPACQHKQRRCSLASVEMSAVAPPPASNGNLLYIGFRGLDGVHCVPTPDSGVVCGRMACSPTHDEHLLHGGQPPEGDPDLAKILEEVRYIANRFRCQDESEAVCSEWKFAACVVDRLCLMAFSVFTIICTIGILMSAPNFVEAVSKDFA

SMILES: CN1C(=O)CC[C@H]1c1cccnc1 [Cotinine, (-)-cotinine]
- binding for α7 nAChR (α7 nAChR [1]): undetectable
- α7 nAChR EC50 in µM (α7 nAChR [2]): no detectable activities; also recorded: No effect*
